Laboratory results taken from publication PMC5218480 (PLoS ONE, 2017).

Tested on: MV-4-11 cells
Experiment: Gene expression microarray analysis (Affymetrix PrimeView) and GSEA
Assay type: cell-based, human
Design: RFU PODN (11730768_x_at) / Fold change /veh PODN (11730768_x_at) / RFU LINC00158 (11744669_a_at) / Fold change /veh LINC00158 (11744669_a_at) / RFU DUSP10 (11751237_a_at) / Fold change /veh DUSP10 (11751237_a_at) / RFU ID3 (11757404_x_at) / Fold change /veh ID3 (11757404_x_at) / RFU PLEKHG5 (11737974_s_at) / Fold change /veh PLEKHG5 (11737974_s_at) / RFU LRRC4B (11730491_at) / Fold change /veh LRRC4B (11730491_at) / RFU GIMAP4 (11747438_a_at) / Fold change /veh GIMAP4 (11747438_a_at) / RFU KRT8 (11758183_x_at) / Fold change /veh KRT8 (11758183_x_at) / RFU CNN1 (11734310_a_at) / Fold change /veh CNN1 (11734310_a_at) / RFU VPS37D (11726825_at) / Fold change /veh VPS37D (11726825_at) / RFU C10orf10 (11716522_x_at) / Fold change /veh C10orf10 (11716522_x_at) / RFU KIR2DL2 /// KIR2DL4 /// KIR2DL5A /// KIR2DL5B /// KIR2DS1 /// KIR2DS2 /// KIR2DS3 /// KIR2DS4 /// KIR3DL3 /// KIR3DL3 /// KIR3DS1 (11738374_at) / Fold change /veh KIR2DL2 /// KIR2DL4 /// KIR2DL5A /// KIR2DL5B /// KIR2DS1 /// KIR2DS2 /// KIR2DS3 /// KIR2DS4 /// KIR3DL3 /// KIR3DL3 /// KIR3DS1 (11738374_at) / RFU C1QL1 (11718748_at) / Fold change /veh C1QL1 (11718748_at) / RFU TMPRSS4 (11747572_a_at) / Fold change /veh TMPRSS4 (11747572_a_at) / RFU HAMP (11756126_x_at) / Fold change /veh HAMP (11756126_x_at) / RFU RNFT2 (11725882_a_at) / Fold change /veh RNFT2 (11725882_a_at) / RFU NR4A2 (11747474_a_at) / Fold change /veh NR4A2 (11747474_a_at) / RFU ABCC12 (11746883_a_at) / Fold change /veh ABCC12 (11746883_a_at) / RFU TMEM136 (11760407_x_at) / Fold change /veh TMEM136 (11760407_x_at) / RFU CLDN22 /// WWC2 (11732394_at) / Fold change /veh CLDN22 /// WWC2 (11732394_at) / RFU HLA-DPB1 (11760878_x_at) / Fold change /veh HLA-DPB1 (11760878_x_at) / RFU SPINT1 (11716480_a_at) / Fold change /veh SPINT1 (11716480_a_at) / RFU GAP43 (11754022_s_at) / Fold change /veh GAP43 (11754022_s_at) / RFU A4GNT (11735810_at) / Fold change /veh A4GNT (11735810_at) / RFU PRB3 (11715151_x_at) / Fold change /veh PRB3 (11715151_x_at) / RFU TUBB4B (11761932_at) / Fold change /veh TUBB4B (11761932_at) / RFU CAPN14 (11732068_a_at) / Fold change /veh CAPN14 (11732068_a_at) / RFU TMCC2 (11721928_a_at) / Fold change /veh TMCC2 (11721928_a_at) / RFU IRGQ (11745062_a_at) / Fold change /veh IRGQ (11745062_a_at) / RFU FAM174B (11720279_a_at) / Fold change /veh FAM174B (11720279_a_at) / RFU TMPRSS4 (11748680_a_at) / Fold change /veh TMPRSS4 (11748680_a_at) / RFU FAM212B (11763350_a_at) / Fold change /veh FAM212B (11763350_a_at) / RFU PLEKHG5 (11743358_a_at) / Fold change /veh PLEKHG5 (11743358_a_at) / RFU ZSCAN30 (11745921_a_at) / Fold change /veh ZSCAN30 (11745921_a_at) / RFU CMKLR1 (11741424_a_at) / Fold change /veh CMKLR1 (11741424_a_at) / RFU LOC101060620 /// MAPK8IP1 (11723275_at) / Fold change /veh LOC101060620 /// MAPK8IP1 (11723275_at) / RFU SPTSSB (11747773_x_at) / Fold change /veh SPTSSB (11747773_x_at) / RFU PRSS12 (11739890_at) / Fold change /veh PRSS12 (11739890_at) / RFU BIN1 (11741810_x_at) / Fold change /veh BIN1 (11741810_x_at) / RFU WNT11 (11732464_a_at) / Fold change /veh WNT11 (11732464_a_at) / RFU C10orf10 (11716521_a_at) / Fold change /veh C10orf10 (11716521_a_at) / RFU C5orf56 (11738089_at) / Fold change /veh C5orf56 (11738089_at) / RFU CYB561 (11721691_x_at) / Fold change /veh CYB561 (11721691_x_at) / RFU ANKRD19P (11752326_a_at) / Fold change /veh ANKRD19P (11752326_a_at) / RFU OR2T12 /// OR2T33 /// OR2T8 (11738714_s_at) / Fold change /veh OR2T12 /// OR2T33 /// OR2T8 (11738714_s_at) / RFU VCAN (11748164_a_at) / Fold change /veh VCAN (11748164_a_at) / RFU JSRP1 (11732532_at) / Fold change /veh JSRP1 (11732532_at) / RFU KRTAP10-11 (11738290_x_at) / Fold change /veh KRTAP10-11 (11738290_x_at) / RFU MYO3A (11730013_a_at) / Fold change /veh MYO3A (11730013_a_at) / RFU EBF3 (11725865_a_at) / Fold change /veh EBF3 (11725865_a_at) / RFU CAMK2N1 (11719241_x_at) / Fold change /veh CAMK2N1 (11719241_x_at) / RFU C5orf56 (11738088_a_at) / Fold change /veh C5orf56 (11738088_a_at) / RFU OLFML3 (11715873_a_at) / Fold change /veh OLFML3 (11715873_a_at) / RFU LOC100653217 /// NTM (11731650_a_at) / Fold change /veh LOC100653217 /// NTM (11731650_a_at) / RFU MAPK11 (11762145_a_at) / Fold change /veh MAPK11 (11762145_a_at) / RFU FIZ1 (11724087_x_at) / Fold change /veh FIZ1 (11724087_x_at) / RFU OASL (11726364_x_at) / Fold change /veh OASL (11726364_x_at) / RFU SOX15 (11748057_x_at) / Fold change /veh SOX15 (11748057_x_at) / RFU CD79A (11719716_a_at) / Fold change /veh CD79A (11719716_a_at) / RFU HIST1H1D (11736915_at) / Fold change /veh HIST1H1D (11736915_at) / RFU CASKIN2 (11723855_a_at) / Fold change /veh CASKIN2 (11723855_a_at) / RFU LOC730098 (11760151_x_at) / Fold change /veh LOC730098 (11760151_x_at) / RFU OR4N2 (11742367_at) / Fold change /veh OR4N2 (11742367_at) / RFU PRRT2 (11749266_a_at) / Fold change /veh PRRT2 (11749266_a_at) / RFU SNX32 (11753110_a_at) / Fold change /veh SNX32 (11753110_a_at) / RFU CDHR5 (11726645_a_at) / Fold change /veh CDHR5 (11726645_a_at) / RFU RCAN1 (11760418_a_at) / Fold change /veh RCAN1 (11760418_a_at) / RFU FAM167A (11723789_a_at) / Fold change /veh FAM167A (11723789_a_at) / RFU FAM26E (11764081_at) / Fold change /veh FAM26E (11764081_at) / RFU ISYNA1 (11749810_s_at) / Fold change /veh ISYNA1 (11749810_s_at) / RFU ACY1 (11761880_at) / Fold change /veh ACY1 (11761880_at) / RFU 11764098_at / Fold change /veh 11764098_at / RFU SAMD14 (11745864_x_at) / Fold change /veh SAMD14 (11745864_x_at) / RFU NPB (11741838_a_at) / Fold change /veh NPB (11741838_a_at) / RFU TMPRSS6 (11731388_a_at) / Fold change /veh TMPRSS6 (11731388_a_at) / RFU KRTAP10-2 (11738614_at) / Fold change /veh KRTAP10-2 (11738614_at) / RFU ARHGAP8 /// PRR5-ARHGAP8 (11727945_x_at) / Fold change /veh ARHGAP8 /// PRR5-ARHGAP8 (11727945_x_at) / RFU KRTAP5-7 /// NADSYN1 (11734609_at) / Fold change /veh KRTAP5-7 /// NADSYN1 (11734609_at) / RFU RASL12 (11751679_a_at) / Fold change /veh RASL12 (11751679_a_at) / RFU CDKN2B (11736163_a_at) / Fold change /veh CDKN2B (11736163_a_at) / RFU PRF1 (11729649_at) / Fold change /veh PRF1 (11729649_at) / RFU, ZNF638 /// ZNF638-IT1 / Fold change vs veh, ZNF638 /// ZNF638-IT1 / RFU, PANK3 / Fold change vs veh, PANK3 / RFU, SH3YL1 / Fold change vs veh, SH3YL1 / RFU, ZEB2 / Fold change vs veh, ZEB2 / RFU, NRIP1 / Fold change vs veh, NRIP1 / RFU, PTTG1IP / Fold change vs veh, PTTG1IP / RFU, CAPN2 / Fold change vs veh, CAPN2 / RFU, MED14 / Fold change vs veh, MED14 / RFU, SNORA58 / Fold change vs veh, SNORA58 / RFU, C1orf63 / Fold change vs veh, C1orf63 / RFU, LRRFIP1 / Fold change vs veh, LRRFIP1 / RFU, NDUFAF7 / Fold change vs veh, NDUFAF7 / RFU, SLC12A2 / Fold change vs veh, SLC12A2 / RFU, IBTK / Fold change vs veh, IBTK / RFU, ESF1 / Fold change vs veh, ESF1 / Fold change vs veh, TMEM50B / RFU, TAOK1 / Fold change vs veh, TAOK1 / RFU, ACBD3 / Fold change vs veh, ACBD3 / RFU, TMA16 / Fold change vs veh, TMA16 / RFU, RWDD3 / Fold change vs veh, RWDD3 / RFU, BCAT1 / Fold change vs veh, BCAT1 / RFU, EDEM3 / Fold change vs veh, EDEM3 / RFU, TMEM33 / Fold change vs veh, TMEM33 / RFU, WDR75 / Fold change vs veh, WDR75 / RFU, AHCTF1 / Fold change vs veh, AHCTF1 / RFU, TFRC / Fold change vs veh, TFRC / RFU, ZDHHC17 / Fold change vs veh, ZDHHC17 / RFU, NOM1 / Fold change vs veh, NOM1 / RFU, ARL8B / Fold change vs veh, ARL8B / RFU, ZBTB11 / Fold change vs veh, ZBTB11 / RFU, TAMM41 / Fold change vs veh, TAMM41 / RFU, KIAA1704 /// LOC100996395 / Fold change vs veh, KIAA1704 /// LOC100996395 / RFU, ING1 / Fold change vs veh, ING1 / RFU, TRMT61B / Fold change vs veh, TRMT61B / RFU, FUBP3 / Fold change vs veh, FUBP3 / RFU, TP53 / Fold change vs veh, TP53 / RFU, TNKS2 / Fold change vs veh, TNKS2 / RFU, ZFP14 / Fold change vs veh, ZFP14 / RFU, ACTR2 / Fold change vs veh, ACTR2 / RFU, PPP3R1 / Fold change vs veh, PPP3R1 / RFU, PIK3R1 / Fold change vs veh, PIK3R1 / RFU, HNRNPA1 / Fold change vs veh, HNRNPA1 / RFU, RNF170 / Fold change vs veh, RNF170 / RFU, ZNF28 / Fold change vs veh, ZNF28 / RFU, RNGTT / Fold change vs veh, RNGTT / RFU, OGT / Fold change vs veh, OGT / RFU, BRD1 / Fold change vs veh, BRD1 / RFU, MARS / Fold change vs veh, MARS / RFU, ZNF655 / Fold change vs veh, ZNF655 / RFU, FAHD1 / Fold change vs veh, FAHD1 / RFU, BDP1 / Fold change vs veh, BDP1 / RFU, LRRCC1 / Fold change vs veh, LRRCC1 / RFU, ARID1A / Fold change vs veh, ARID1A / RFU, ZNF146 / Fold change vs veh, ZNF146 / RFU, ZNF330 / Fold change vs veh, ZNF330 / RFU, GPN3 / Fold change vs veh, GPN3 / RFU, C9orf123 / Fold change vs veh, C9orf123 / RFU, N4BP2L2 / Fold change vs veh, N4BP2L2 / RFU, ARFIP1 / Fold change vs veh, ARFIP1 / RFU, FAM179B / Fold change vs veh, FAM179B / RFU, BCL10 / Fold change vs veh, BCL10 / RFU, UHRF1BP1L / Fold change vs veh, UHRF1BP1L / RFU, BET1 / Fold change vs veh, BET1 / RFU, CNOT2 / Fold change vs veh, CNOT2 / RFU, ZNF268 / Fold change vs veh, ZNF268 / Fold change vs veh, ZNF507 / RFU, DGCR2 / Fold change vs veh, DGCR2 / RFU, WDSUB1 / Fold change vs veh, WDSUB1 / Fold change vs veh, HSP90B1 /// MIR3652 / RFU, ADSS / Fold change vs veh, ADSS / RFU, GK / Fold change vs veh, GK / RFU, ZNF148 / Fold change vs veh, ZNF148 / RFU, TAF9 / Fold change vs veh, TAF9 / RFU, SLC1A5 / Fold change vs veh, SLC1A5 / RFU, SLMO2 / Fold change vs veh, SLMO2 / RFU, ABCC4 / Fold change vs veh, ABCC4 / RFU, LOC101060439 /// RAP1B / Fold change vs veh, LOC101060439 /// RAP1B / RFU, RFX7 / Fold change vs veh, RFX7 / RFU, GTPBP10 / Fold change vs veh, GTPBP10 / RFU, CNEP1R1 / Fold change vs veh, CNEP1R1 / RFU, BIVM-ERCC5 /// ERCC5 / Fold change vs veh, BIVM-ERCC5 /// ERCC5 / RFU, ILF3 / Fold change vs veh, ILF3 / RFU 11762660_at / Fold change /veh 11762660_at / RFU VCAN (11757783_s_at) / Fold change /veh VCAN (11757783_s_at) / RFU DDX43 (11728927_at) / Fold change /veh DDX43 (11728927_at) / RFU KRT8 (11758188_x_at) / Fold change /veh KRT8 (11758188_x_at) / RFU NKD1 (11759106_at) / Fold change /veh NKD1 (11759106_at) / RFU SRD5A1 (11742802_a_at) / Fold change /veh SRD5A1 (11742802_a_at) / RFU TPSAB1 /// TPSB2 (11721975_s_at) / Fold change /veh TPSAB1 /// TPSB2 (11721975_s_at) / RFU GSTM3 (11746129_a_at) / Fold change /veh GSTM3 (11746129_a_at) / RFU IL23R (11737362_x_at) / Fold change /veh IL23R (11737362_x_at) / RFU TMEM51 (11727254_a_at) / Fold change /veh TMEM51 (11727254_a_at) / RFU PIWIL2 (11732686_x_at) / Fold change /veh PIWIL2 (11732686_x_at) / RFU ORM1 (11744905_x_at) / Fold change /veh ORM1 (11744905_x_at) / RFU CCDC152 (11743942_at) / Fold change /veh CCDC152 (11743942_at) / RFU ECM1 (11717891_a_at) / Fold change /veh ECM1 (11717891_a_at) / RFU IL23R (11748794_a_at) / Fold change /veh IL23R (11748794_a_at) / RFU TNFAIP8L3 (11732012_x_at) / Fold change /veh TNFAIP8L3 (11732012_x_at) / RFU MBOAT4 (11741988_at) / Fold change /veh MBOAT4 (11741988_at) / RFU 11764193_at / Fold change /veh 11764193_at / RFU TMEM53 (11763286_at) / Fold change /veh TMEM53 (11763286_at) / RFU MAGEB2 (11727129_at) / Fold change /veh MAGEB2 (11727129_at) / RFU TMEM200A (11744735_a_at) / Fold change /veh TMEM200A (11744735_a_at) / RFU CCDC152 (11751479_a_at) / Fold change /veh CCDC152 (11751479_a_at) / RFU FAM211A (11726209_a_at) / Fold change /veh FAM211A (11726209_a_at) / RFU RGS16 (11746705_a_at) / Fold change /veh RGS16 (11746705_a_at) / RFU VCAN (11755009_s_at) / Fold change /veh VCAN (11755009_s_at) / RFU RHOB (11743442_s_at) / Fold change /veh RHOB (11743442_s_at) / RFU RGS16 (11720943_a_at) / Fold change /veh RGS16 (11720943_a_at) / RFU RGS16 (11720944_at) / Fold change /veh RGS16 (11720944_at) / RFU, VPS4B / Fold change vs veh, VPS4B / RFU, CREB1 / Fold change vs veh, CREB1 / RFU, DNAJC13 / Fold change vs veh, DNAJC13 / RFU, GNAQ / Fold change vs veh, GNAQ / RFU, CDK5R1 / Fold change vs veh, CDK5R1 / RFU, ZRANB3 / Fold change vs veh, ZRANB3 / RFU, CUL4A / Fold change vs veh, CUL4A / RFU, CCNY / Fold change vs veh, CCNY / RFU, UFL1 / Fold change vs veh, UFL1 / RFU, COG3 / Fold change vs veh, COG3 / RFU, DIAPH2 / Fold change vs veh, DIAPH2 / RFU, SKA2 / Fold change vs veh, SKA2 / RFU, AFF3 / Fold change vs veh, AFF3 / RFU, LMF1 / Fold change vs veh, LMF1 / RFU, IPO11 / Fold change vs veh, IPO11 / RFU, DFFB / Fold change vs veh, DFFB / RFU, FOXP1 / Fold change vs veh, FOXP1 / RFU, CARD8 / Fold change vs veh, CARD8 / RFU, STRN3 / Fold change vs veh, STRN3 / RFU, ADK / Fold change vs veh, ADK / RFU, RASSF2 / Fold change vs veh, RASSF2 / RFU, WIPF1 / Fold change vs veh, WIPF1 / RFU, LARP1B / Fold change vs veh, LARP1B / RFU, RASA1 / Fold change vs veh, RASA1 / RFU, RB1 / Fold change vs veh, RB1 / RFU, PPFIA1 / Fold change vs veh, PPFIA1 / RFU, MAT2A / Fold change vs veh, MAT2A / RFU, CCT5 / Fold change vs veh, CCT5 / RFU, WDR92 / Fold change vs veh, WDR92 / RFU, CUX1 / Fold change vs veh, CUX1 / RFU, TTC7A / Fold change vs veh, TTC7A / RFU, TMEM135 / Fold change vs veh, TMEM135 / RFU, DEPTOR / Fold change vs veh, DEPTOR / RFU, CPM / Fold change vs veh, CPM / RFU, DNAJB6 / Fold change vs veh, DNAJB6 / RFU, CACNA2D3 / Fold change vs veh, CACNA2D3 / RFU, DTX4 / Fold change vs veh, DTX4 / RFU, TFCP2 / Fold change vs veh, TFCP2 / RFU, GMCL1 /// GMCL1P1 / Fold change vs veh, GMCL1 /// GMCL1P1 / RFU, AEBP2 / Fold change vs veh, AEBP2 / RFU, SNHG1 /// SNORD22 /// SNORD25 /// SNORD26 /// SNORD27 /// SNORD28 /// SNORD29 /// SNORD31 / Fold change vs veh, SNHG1 /// SNORD22 /// SNORD25 /// SNORD26 /// SNORD27 /// SNORD28 /// SNORD29 /// SNORD31 / Fold change (Aza/veh), C12orf56 (ProbeSet 11735607_a_at) / Fold change (ACY-1035/veh), C12orf56 (ProbeSet 11735607_a_at) / Fold change (Aza/veh), FGFR1OP (ProbeSet 11751329_s_at) / Fold change (ACY-1035/veh), FGFR1OP (ProbeSet 11751329_s_at) / Fold change (Aza/veh), VPS36 (ProbeSet 11739960_a_at) / Fold change (ACY-1035/veh), VPS36 (ProbeSet 11739960_a_at) / RFU SYPL1 (11715823_x_at) / Fold change /veh SYPL1 (11715823_x_at) / RFU IGFBP7 (11715501_s_at) / Fold change /veh IGFBP7 (11715501_s_at) / RFU REEP3 (11722064_at) / Fold change /veh REEP3 (11722064_at) / RFU IGLL1 (11728026_x_at) / Fold change /veh IGLL1 (11728026_x_at): dose or concentration left out as unconfirmed
Details: MV-4-11 cells, 48 hours

Compound: Nc1ccc(-c2cccs2)cc1NC(=O)c1ccc2c(c1)cc(C1CC1)n2CCN1CCOCC1 [ACY-1035]
- RFU EBF3 (11725865_a_at): 63.04 RFU
